According to US6528535B2, “Bicyclic inhibitors of protein farnesyl transferase” (Warner-Lambert Company, priority 1997, dated 2003):

How the values were obtained:
[1] = test system: EJ-1 human bladder carcinoma; details: 100 mg/kg; EJ-1 human bladder carcinoma xenograft in nude mice; cited from earlier work
[2] = test system: HT1080 human fibrosarcoma; details: 100 mg/kg; HT1080 human fibrosarcoma xenograft in nude mice; cited from earlier work
[3] = test system: human colon carcinoma xenografts; details: 100 mg/kg; human colon carcinoma xenografts in nude mice; cited from earlier work
[4] = test system: mammary and salivary carcinomas; details: daily administration; ras transgenic mice; cited from earlier work
[5] = test system: human lung carcinoma with K-ras mutation and p53 deletion; details: nude mice; cited from earlier work
[6] = target: T1, SF9 affinity purified rat FPT (Rattus norvegicus, UniProt Q02293+Q04631); assay: PFT (farnesyl protein transferase) inhibitory activity, radiolabeled farnesyl pyrophosphate / biotinyl peptide bead assay; format: biochemical; details: average of two tests unless n is given in parentheses; read-out: FTase, IC50
T1 construct: made in house; host or cells: Sf9 insect cells
Method in brief: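 Rat FPT, affinity-purified from SF9 cells, was run at 30° C. for 30 min in HEPES pH 7.4 with 5 mM potassium phosphate, 20 μM ZnCl2, 5 mM DTT, 5 mM MgCl2 and 0.1% PEG 8000; the assay was also run without phosphate. Substrates were [3H]farnesyl pyrophosphate (134 nM) and biotinyl-Ahe-TKCVIM peptide (0.2 μM). Product was captured on streptavidin beads and counted.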

SMILES: COC(=O)[C@H](CCSC)NC(=O)[C@H](/C=C\[C@@H](/C=C/[C@@H](N)CS)C(C)C)Cc1ccccc1 [Example B1086]
- tumor growth [1]: inhibit tumor growth
- tumor growth [2]: inhibit tumor growth
- tumor growth [3]: inhibit tumor growth

SMILES: CC[C@H](C)[C@@H](CO[C@@H](Cc1ccccc1)C(=O)N[C@@H](CCS(C)(=O)=O)C(=O)OC(C)C)NC[C@@H](N)CS [L-744,832]
- tumor regression [4]: caused tumor regression

SMILES: CSCC[C@H](NC(=O)c1ccc(NC[C@@H](N)CS)cc1-c1ccccc1)C(=O)O [FTI276]
- tumor growth [5]: selectively block tumor growth

SMILES: O=C1C(=Cc2ccc(Br)cc2)CCc2cc(OCCn3ccnc3)ccc21 [Example 5, 2-(4-Bromo-benzylidene)-6-(2-imidazole-1-yl-ethoxy)-3,4-dihydro-2H-naphthalen-1-one]
- IC50 [6]: 1370 nM
- melting point: 152 to 153 °C

SMILES: O=c1ccoc2cc(OCCn3ccnc3)ccc12 [Example 50, 7-[2-(1H-1-Imidazolyl)ethoxy]-4H-4-chromenone]
- IC50 [6]: 2600 nM
- melting point: 131 to 133 °C

SMILES: O=C1/C(=C/C=C/c2ccccc2)CCc2cc(OCCn3ccnc3)ccc21 [Example 44, (E,E)-6-(2-Imidazol-1-yl-ethoxy)-2-(3-phenyl-allylidene)-3,4-dihydro-2H-naphthalen-1-one]
- IC50 [6]: 3600 nM
- melting point: 198 to 200 °C

SMILES: O=C1C(=Cc2ccccc2)CCc2cc(OCCc3c[nH]cn3)ccc21 [Example 30, 2-Benzylidene-6-[2-(1H-imidazole-4-yl)-ethoxy]-3,4-dihydro-2H-naphthalen-1-one]
- IC50 [6]: 890 nM
- melting point: 53 to 56 °C

SMILES: O=C1C(=Cc2sccc2Oc2ccccc2)CCc2cc(OCCn3ccnc3)ccc21 [Example 20, 6-(2-Imidazole-1-yl-ethoxy)-2-(3-phenoxy-thiophen-2-ylmethylene)-3,4-dihydro-2H-naphthalen-1-one]
- IC50 [6]: 3100 nM
- melting point: 135 to 137 °C

SMILES: O=C1C(=Cc2ccco2)CCc2cc(OCCc3c[nH]cn3)ccc21 [Example 41, 2-Furan-2-ylmethylene-6-[2-(1H-imidazole-4-yl)-ethoxy]-3,4-dihydro-2H-naphthalen-1-one]
- IC50 [6]: 190 nM
- melting point: 57 to 60 °C
